Like-named read-outs stand apart in the source and are kept apart here.
Columns and labels:
[1] = test system: A2780 (ovarian carcinoma); assay: SRB cytotoxicity assay, 72 h; type: cell-based, human; settings: Homo sapiens; A2780, 72 h, cut-off 30 µM; read-out: EC50
Summary of the method: (§1)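 EC50 values from SRB absorbance (570 nm) after TCA fixation, as percent surviving cells versus untreated controls. Compound exposure was 72 h at 0–30 µM, starting 24 h post-seeding, with final DMSO not above 0.5%.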

[2] = test system: A375 (malignant melanoma); assay: SRB cytotoxicity assay, 72 h; type: cell-based, human; settings: Homo sapiens, A-375, 72 h, A375, 72 h, cut-off 30 µM; read-out: EC50
Summary of the method: as §1

[3] = test system: FaDu (hypopharyngeal carcinoma); assay: SRB cytotoxicity assay, 72 h; type: cell-based, human; settings: Homo sapiens, cut-off 30 µM, read-out: EC50
Summary of the method: as §1

[4] = test system: HT29 (colorectal carcinoma); assay: SRB cytotoxicity assay, 72 h; type: cell-based, human; settings: Homo sapiens, HT-29; HT29, 72 h, cut-off 30 µM; read-out: EC50
Summary of the method: as §1

MCF-7 (breast carcinoma) = assay: SRB cytotoxicity assay, 72 h; type: cell-based, human; settings: Homo sapiens, MCF7; MCF-7, 72 h, cut-off 30 µM; read-out: EC50
Summary of the method: as §1

SR (Leukemia) = assay: NCI-60 screen (SRB, 48 h); type: cell-based; settings: for GI50: Homo sapiens
MDA-MB-435 (Melanoma) = assay: NCI-60 screen (SRB, 48 h); type: cell-based
BT-549 (Breast cancer) = assay: NCI-60 screen (SRB, 48 h); type: cell-based; settings: Homo sapiens; for GI50: BT-549; for IC (TGI): BT-549, 48 h
NSC lung cancer subpanel = assay: NCI-60 screen, subpanel; settings: Homo sapiens; for IC (TGI): 48 h, read-out: TGI MG_MID; for GI50: read-out: GI50 MG_MID; for CC50: read-out: LC50 MG_MID
CCRF-CEM (Leukemia) = assay: NCI-60 screen (SRB, 48 h); settings: Homo sapiens; for IC (TGI): 48 h, read-out: TGI; for CC50: read-out: LC50
RPMI-8226 (Leukemia) = assay: NCI-60 screen (SRB, 48 h); settings: Homo sapiens; for GI50: RPMI-8226; for IC (TGI): RPMI-8226, 48 h, read-out: TGI; for CC50: RPMI-8226, read-out: LC50
HCT-116 (Colon cancer) = assay: NCI-60 screen (SRB, 48 h); settings: Homo sapiens; for GI50: HCT-116; for activity at 10 µM / IC (TGI): HCT-116, 48 h; for activity at 10 µM: read-out: Growth % of the Most Sensitive Cell Lines; for IC (TGI): read-out: TGI; for CC50: HCT-116, read-out: LC50
HT29 (Colon cancer) = assay: NCI-60 screen (SRB, 48 h); settings: Homo sapiens; for GI50: HT-29; for IC (TGI): HT-29, 48 h, read-out: TGI
SF-268 (CNS cancer) = assay: NCI-60 screen (SRB, 48 h); settings: Homo sapiens; for GI50: SF-268; for IC (TGI): SF-268, 48 h, read-out: TGI; for CC50: SF-268, read-out: LC50
SF-539 (CNS cancer) = assay: NCI-60 screen (SRB, 48 h); settings: Homo sapiens; for GI50: SF-539; for IC (TGI): SF-539, 48 h, read-out: TGI; for CC50: SF-539, read-out: LC50
U251 (CNS cancer) = assay: NCI-60 screen (SRB, 48 h); settings: for GI50 / IC (TGI) / CC50: Homo sapiens; for GI50: U-251; for IC (TGI): U-251, 48 h, read-out: TGI; for CC50: U-251, read-out: LC50
SK-MEL-5 (Melanoma) = assay: NCI-60 screen (SRB, 48 h); settings: for GI50 / IC (TGI) / CC50: Homo sapiens; for GI50: SK-MEL-5; for IC (TGI): SK-MEL-5, 48 h, read-out: TGI; for CC50: SK-MEL-5, read-out: LC50
IGROV1 (Ovarian cancer) = assay: NCI-60 screen (SRB, 48 h); settings: Homo sapiens; for GI50: IGROV-1; for IC (TGI): IGROV-1, 48 h, read-out: TGI; for CC50: IGROV-1, read-out: LC50
OVCAR-5 (Ovarian cancer) = assay: NCI-60 screen (SRB, 48 h); settings: Homo sapiens; for GI50: OVCAR-5; for IC (TGI): OVCAR-5, 48 h, read-out: TGI; for CC50: OVCAR-5, read-out: LC50
SK-OV-3 (Ovarian cancer) = assay: NCI-60 screen (SRB, 48 h); settings: Homo sapiens; for GI50: SK-OV-3; for IC (TGI): SK-OV-3, 48 h, read-out: TGI; for CC50: SK-OV-3, read-out: LC50
CAKI-1 (Renal cancer) = assay: NCI-60 screen (SRB, 48 h); settings: Homo sapiens; for GI50: CAKI-1; for IC (TGI): CAKI-1, 48 h, read-out: TGI; for CC50: CAKI-1, read-out: LC50
RXF 393 (Renal cancer) = assay: NCI-60 screen (SRB, 48 h); settings: Homo sapiens; for GI50: RXF 393; for IC (TGI): RXF 393, 48 h, read-out: TGI; for CC50: RXF 393, read-out: LC50
TK-10 (Renal cancer) = assay: NCI-60 screen (SRB, 48 h); settings: Homo sapiens; for GI50: TK-10; for IC (TGI): TK-10, 48 h, read-out: TGI; for CC50: TK-10, read-out: LC50
PC-3 (Prostate cancer) = assay: NCI-60 screen (SRB, 48 h); settings: Homo sapiens; for GI50: PC-3; for IC (TGI): PC-3, 48 h, read-out: TGI; for CC50: PC-3, read-out: LC50

C=C(C)C1CCC2(CO)CCC3(C)C(CCC4C5(C)CCCNC(C)(C)C5CCC43C)C12 (centres unmarked) [Compound 1, Azepanobetulin]
EC50 [1]: 2390 ± 200 nM
EC50 [2]: 2520 ± 200 nM
EC50 [3]: 2320 ± 300 nM
EC50 [4]: 1630 ± 300 nM
EC50 (MCF-7 (breast carcinoma)): 1910 ± 100 nM
TGI (SR (Leukemia)): 3.79 µM
GI50 (SR (Leukemia)): 1590 nM
IC (TGI) (MDA-MB-435 (Melanoma); Homo sapiens, MDA-MB-435, 48 h; read-out: TGI): 2.95 µM
GI50 (MDA-MB-435 (Melanoma); Homo sapiens, MDA-MB-435; read-out: GI50): 1560 nM
GI50 (BT-549 (Breast cancer)): 1790 nM
IC (TGI) (BT-549 (Breast cancer)): 3.46 µM
IC (TGI) (NSC lung cancer subpanel): 3.35 µM
GI50 (NSC lung cancer subpanel): 1710 nM
CC50 (NSC lung cancer subpanel): 6.49 µM
GI50 (CCRF-CEM (Leukemia)): 2070 nM
IC (TGI) (CCRF-CEM (Leukemia)): 4.91 µM
CC50 (CCRF-CEM (Leukemia)): > 100 µM
GI50 (RPMI-8226 (Leukemia)): 1940 nM
IC (TGI) (RPMI-8226 (Leukemia)): 4.51 µM
CC50 (RPMI-8226 (Leukemia)): > 100 µM
GI50 (HCT-116 (Colon cancer)): 1290 nM
activity at 10 µM (HCT-116 (Colon cancer)): -79%
IC (TGI) (HCT-116 (Colon cancer)): 2.63 µM
CC50 (HCT-116 (Colon cancer)): 5.38 µM
GI50 (HT29 (Colon cancer)): 1270 nM
IC (TGI) (HT29 (Colon cancer)): 2.85 µM
GI50 (SF-268 (CNS cancer)): 1740 nM
IC (TGI) (SF-268 (CNS cancer)): 3.54 µM
CC50 (SF-268 (CNS cancer)): 7.19 µM
GI50 (SF-539 (CNS cancer)): 1580 nM
IC (TGI) (SF-539 (CNS cancer)): 3.01 µM
CC50 (SF-539 (CNS cancer)): 5.72 µM
GI50 (U251 (CNS cancer)): 1650 nM
IC (TGI) (U251 (CNS cancer)): 3.09 µM
CC50 (U251 (CNS cancer)): 5.76 µM
GI50 (SK-MEL-5 (Melanoma)): 1380 nM
IC (TGI) (SK-MEL-5 (Melanoma)): 2.7 µM
CC50 (SK-MEL-5 (Melanoma)): 5.28 µM
Growth % of the Most Sensitive Cell Lines (SK-MEL-5 (Melanoma); SK-MEL-5, 1 dose 10 µM): −82.49%
GI50 (IGROV1 (Ovarian cancer)): 1650 nM
IC (TGI) (IGROV1 (Ovarian cancer)): 3.26 µM
CC50 (IGROV1 (Ovarian cancer)): 6.44 µM
GI50 (OVCAR-5 (Ovarian cancer)): 1510 nM
IC (TGI) (OVCAR-5 (Ovarian cancer)): 2.89 µM
CC50 (OVCAR-5 (Ovarian cancer)): 5.52 µM
GI50 (SK-OV-3 (Ovarian cancer)): 1830 nM
IC (TGI) (SK-OV-3 (Ovarian cancer)): 3.49 µM
CC50 (SK-OV-3 (Ovarian cancer)): 6.64 µM
GI50 (CAKI-1 (Renal cancer)): 1550 nM
IC (TGI) (CAKI-1 (Renal cancer)): 2.89 µM
CC50 (CAKI-1 (Renal cancer)): 5.4 µM
GI50 (RXF 393 (Renal cancer)): 1680 nM
IC (TGI) (RXF 393 (Renal cancer)): 3.18 µM
CC50 (RXF 393 (Renal cancer)): 6.04 µM
GI50 (TK-10 (Renal cancer)): 1760 nM
IC (TGI) (TK-10 (Renal cancer)): 3.5 µM
CC50 (TK-10 (Renal cancer)): 6.96 µM
GI50 (PC-3 (Prostate cancer)): 2940 nM
IC (TGI) (PC-3 (Prostate cancer)): 2.94 µM
CC50 (PC-3 (Prostate cancer)): 5.74 µM

C[C@H]1[C@H](C)CC[C@]2(CO)CC[C@]3(C)C(=CC[C@@H]4[C@@]5(C)CCCNC(C)(C)[C@@H]5CC[C@]43C)[C@H]12 [Compound 4, azepanouvaol]
EC50 [1]: 2630 ± 100 nM
EC50 [2]: 2400 ± 200 nM
EC50 [3]: 1690 ± 400 nM
EC50 [4]: 1710 ± 300 nM
EC50 (MCF-7 (breast carcinoma)): 2300 ± 200 nM
TGI (SR (Leukemia)): 3.13 µM
GI50 (SR (Leukemia)): 1180 nM
GI50 (MDA-MB-435 (Melanoma); Homo sapiens, MDA-MB-435): 1590 nM
IC (TGI) (MDA-MB-435 (Melanoma); Homo sapiens, MDA-MB-435, 48 h, read-out: TGI): 3.21 µM
CC50 (MDA-MB-435 (Melanoma); Homo sapiens, MDA-MB-435; read-out: LC50 (the source's name)): 6.49 µM
GI50 (BT-549 (Breast cancer)): 1550 nM
IC (TGI) (BT-549 (Breast cancer)): 2.96 µM
IC (TGI) (NSC lung cancer subpanel): 3.4 µM
GI50 (NSC lung cancer subpanel): 1740 nM
CC50 (NSC lung cancer subpanel): 6.37 µM
GI50 (CCRF-CEM (Leukemia)): 1740 nM
IC (TGI) (CCRF-CEM (Leukemia)): 3.93 µM
CC50 (CCRF-CEM (Leukemia)): 8.88 µM
GI50 (RPMI-8226 (Leukemia)): 1850 nM
IC (TGI) (RPMI-8226 (Leukemia)): 4.15 µM
CC50 (RPMI-8226 (Leukemia)): 9.27 µM
GI50 (HCT-116 (Colon cancer)): 1490 nM
activity at 10 µM (HCT-116 (Colon cancer)): -94.7%
IC (TGI) (HCT-116 (Colon cancer)): 2.81 µM
CC50 (HCT-116 (Colon cancer)): 5.31 µM
GI50 (HT29 (Colon cancer)): 630 nM
IC (TGI) (HT29 (Colon cancer)): 1.97 µM
CC50 (HT29 (Colon cancer); HT-29, read-out: LC50): 4.85 µM
GI50 (SF-268 (CNS cancer)): 1790 nM
IC (TGI) (SF-268 (CNS cancer)): 3.5 µM
CC50 (SF-268 (CNS cancer)): 6.84 µM
GI50 (SF-539 (CNS cancer)): 1690 nM
IC (TGI) (SF-539 (CNS cancer)): 3.16 µM
CC50 (SF-539 (CNS cancer)): 5.9 µM
GI50 (U251 (CNS cancer)): 1670 nM
IC (TGI) (U251 (CNS cancer)): 3.15 µM
CC50 (U251 (CNS cancer)): 5.94 µM
Growth % of the Most Sensitive Cell Lines (U251 (CNS cancer); U251, 1 dose 10 µM): −83.30%
GI50 (SK-MEL-5 (Melanoma)): 1700 nM
IC (TGI) (SK-MEL-5 (Melanoma)): 3.09 µM
CC50 (SK-MEL-5 (Melanoma)): 5.62 µM
GI50 (IGROV1 (Ovarian cancer)): 1850 nM
IC (TGI) (IGROV1 (Ovarian cancer)): 3.72 µM
CC50 (IGROV1 (Ovarian cancer)): 7.45 µM
GI50 (OVCAR-5 (Ovarian cancer)): 1690 nM
IC (TGI) (OVCAR-5 (Ovarian cancer)): 3.18 µM
CC50 (OVCAR-5 (Ovarian cancer)): 5.99 µM
GI50 (SK-OV-3 (Ovarian cancer)): 2540 nM
IC (TGI) (SK-OV-3 (Ovarian cancer)): 3.97 µM
CC50 (SK-OV-3 (Ovarian cancer)): 35.2 µM
GI50 (CAKI-1 (Renal cancer)): 1620 nM
IC (TGI) (CAKI-1 (Renal cancer)): 3.23 µM
CC50 (CAKI-1 (Renal cancer)): 6.43 µM
GI50 (RXF 393 (Renal cancer)): 1810 nM
IC (TGI) (RXF 393 (Renal cancer)): 3.51 µM
CC50 (RXF 393 (Renal cancer)): 6.79 µM
GI50 (TK-10 (Renal cancer)): 1840 nM
IC (TGI) (TK-10 (Renal cancer)): 3.32 µM
CC50 (TK-10 (Renal cancer)): 5.97 µM
GI50 (PC-3 (Prostate cancer)): 1550 nM
IC (TGI) (PC-3 (Prostate cancer)): 2.97 µM
CC50 (PC-3 (Prostate cancer)): 5.66 µM

From article PMC7914897, “Cytotoxic Potential of a-Azepano- and 3-Amino-3,4-SeCo-Triterpenoids” (International Journal of Molecular Sciences, 2021)
